Experimental data published in article PMC10584170, “Machine learning-based phenotypic imaging to characterise the targetable biology of Plasmodium falciparum male gametocytes for the development of transmission-blocking antimalarials” (PLOS Pathogens, 2023).

Experiments:
[1] = tested on: P. falciparum male gametocytes; test: P. falciparum Dual Gamete Formation Assay (PfDGFA), male readout (exflagellation); type: cell-based, Plasmodium falciparum NF54; conditions: for Average inhibition male (%): average of replicates; for % inhibition male (individual replicates) R1: replicate R1; for % inhibition male (individual replicates) R3: replicate R3; for % inhibition male (individual replicates) R4: replicate R4; for Activity: hit = >50% inhibition in male or female readout in at least 3 replicates, 0 = no class assigned
In short: (§1)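 First, day-14 P. falciparum NF54 gametocytes receive compound for 24 h at 37°C in 1% O2/3% CO2. Next, ookinete medium with Cy3 anti-Pfs25 triggers gametogenesis at 28°C and male exflagellation is imaged. Finally, after 24 h in the dark, Cy3-labelled females are imaged.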

[2] = tested on: P. falciparum female gametocytes; test: P. falciparum Dual Gamete Formation Assay (PfDGFA), female readout (Pfs25-positive female gametes); type: cell-based, Plasmodium falciparum NF54; conditions: for Average inhibition female (%): average of replicates; for % inhibition female (individual replicates) R1: replicate R1; for % inhibition female (individual replicates) R3: replicate R3; for % inhibition female (individual replicates) R4: replicate R4
In short: as §1

[3] = 2µM, 24h preincubation with gametocytes prior to induction of gametogenesis
[4] = 2µM, 24h preincubation, number of replicates with >50% inhibition in the male readout
[5] = 2µM, 24h preincubation, number of replicates with >50% inhibition in the female readout
[6] = 2µM, 24h preincubation, hits selected on >50% inhibition in the male readout across replicates
[7] = PfDGFA at 2µM, 24h preincubation
[8] = 2µM, 24h preincubation, hits selected on >50% inhibition in the female readout across replicates
[9] = PfDGFA at 2µM, 24h preincubation with gametocytes
[10] = number of replicates with >50% inhibition in the male readout, 2µM
[11] = number of replicates with >50% inhibition in the female readout, 2µM
[12] = PfDGFA at 2µM, 24h preincubation with gametocytes prior to induction of gametogenesis

| Compound | Average inhibition male (%) [1, 3] | % inhibition male (individual replicates) R1 [1, 3] | % inhibition male (individual replicates) R3 [1, 3] | % inhibition male (individual replicates) R4 [1, 3] | Average inhibition female (%) [2, 3] | % inhibition female (individual replicates) R1 [2, 3] | % inhibition female (individual replicates) R3 [2, 3] | % inhibition female (individual replicates) R4 [2, 3] | % inhibition male (individual replicates) R1 [1, 12] | % inhibition male (individual replicates) R4 [1, 12] | Average inhibition male (%) [1, 7] | % inhibition female (individual replicates) R1 [2, 12] | % inhibition female (individual replicates) R3 [2, 12] | % inhibition female (individual replicates) R4 [2, 12] | Average inhibition female (%) [2, 7] | also measured |
| --- | --- | --- | --- | --- | --- | --- | --- | --- | --- | --- | --- | --- | --- | --- | --- | --- |
| CCCCCCOc1ccc2ccccc2c1CNCCCCCCNCc1c(OCCCCCC)ccc2ccccc12.CS(=O)(=O)O [TCMDC-137963] | 26.5% | 35.9% | 2.2% | 25.6% | 30.9% | 24.3% | 23.7% | 29.4% | – | – | – | – | – | – | – | HitlevelM [1, 4]: 0; HitlevelF [2, 5]: 0 |
| CC(C)COc1ccc2ccccc2c1CNCCCCCCNCc1c(OCC(C)C)ccc2ccccc12.CS(=O)(=O)O [TCMDC-137972] | 47.1% | 41.0% | 61.0% | 84.0% | 43.0% | 37.9% | 36.7% | 62.6% | – | – | – | – | – | – | – | HitlevelM [1, 4]: 2; HitlevelF [2, 5]: 1 |
| CN(C)S(=O)(=O)n1ccc2c3c(N)nc(N)nc3ccc21 [TCMDC-137973] | -3.2% | 31.1% | -3.2% | -51.1% | 12.1% | 13.5% | 33.5% | 1.8% | – | – | – | – | – | – | – | HitlevelM [1, 6]: 0; Activity [1, 7]: 0; HitlevelF [2, 8]: 0 |
| CCCCOc1c(CNCCCCCCNCc2ccc3ccccc3c2OCCCC)ccc2ccccc12.CS(=O)(=O)O [TCMDC-137975] | – | – | – | – | – | – | – | – | – | – | – | – | – | – | – | Average inhibition male (%) [1, 9]: 78.3%; % inhibition male (individual replicates) R1 [1, 9]: 78.0%; % inhibition male (individual replicates) R4 [1, 9]: 67.8%; HitlevelM [1, 10]: 3; Average inhibition female (%) [2, 9]: 39.1%; % inhibition female (individual replicates) R1 [2, 9]: 52.1%; % inhibition female (individual replicates) R3 [2, 9]: 14.4%; % inhibition female (individual replicates) R4 [2, 9]: 37.6%; HitlevelF [2, 11]: 2 |
| CC(C)(C)c1ccc(-c2cc3c(ccc4nc(N)nc(N)c43)[nH]2)cc1 [TCMDC-137977] | 2.0% | 6.1% | 0.4% | -0.46% | 6.0% | 2.7% | -16.6% | 37.6% | – | – | – | – | – | – | – | HitlevelM [1, 6]: 0; Activity [1, 7]: 0; HitlevelF [2, 8]: 0 |
| Nc1nc(N)c2c(ccc3c2ccn3Cc2ccccn2)n1 [TCMDC-137980] | – | – | – | – | – | – | – | – | -11.9% | -51.4% | -22.7% | 1.3% | -9.6% | 4.7% | -4.0% | – |
| C=CCn1ccc2c3c(N)nc(N)nc3ccc21 [TCMDC-137995] | – | – | – | – | – | – | – | – | 38.6% | 16.7% | 27.9% | -8.1% | -14.1% | 22.9% | -3.2% | % inhibition male (individual replicates) R3 [1, 12]: 29.0% |
| CCCN(CCC)CCCN(CCCN(CCC)CCC)c1cc(C)nc(Nc2ccc3cc(Br)ccc3c2)n1.Cl [TCMDC-138006] | – | – | – | – | – | – | – | – | – | – | – | – | – | – | – | Average inhibition male (%) [1, 9]: 65.9%; % inhibition male (individual replicates) R1 [1, 9]: 64.4%; % inhibition male (individual replicates) R3 [1, 9]: 70.2%; % inhibition male (individual replicates) R4 [1, 9]: 75.1%; HitlevelM [1, 10]: 4; Average inhibition female (%) [2, 9]: 38.7%; % inhibition female (individual replicates) R1 [2, 9]: 42.6%; % inhibition female (individual replicates) R3 [2, 9]: 25.8%; % inhibition female (individual replicates) R4 [2, 9]: 40.6%; HitlevelF [2, 11]: 0 |
| Cc1ccc2ccncc2c1N [TCMDC-138025] | – | – | – | – | – | – | – | – | 6.2% | 37.3% | 29.9% | -5.1% | -43.7% | -6.6% | -17.6% | % inhibition male (individual replicates) R3 [1, 12]: 45.8% |
| Cc1c(Cc2ccc(C(C)C)cc2)cnc2nc(N)nc(N)c12 [TCMDC-138044] | – | – | – | – | – | – | – | – | 10.0% | -19.8% | -5.8% | 2.8% | -15.2% | -3.9% | -2.8% | % inhibition male (individual replicates) R3 [1, 12]: -13.9% |
| COc1ccc(Cc2cnc3nc(N)nc(N)c3c2C)cc1OC.O=S(=O)(O)CCO [TCMDC-138057] | -16.7% | 13.3% | -15.1% | -55.1% | 4.5% | 12.4% | -12.7% | 12.4% | – | – | – | – | – | – | – | HitlevelM [1, 6]: 0; Activity [1, 7]: 0; HitlevelF [2, 8]: 0 |
| COc1cccc(Cc2cnc3nc(N)nc(N)c3c2C)c1 [TCMDC-138060] | – | – | – | – | – | – | – | – | 14.7% | -36.5% | 7.0% | -4.3% | -2.0% | 3.5% | -1.4% | – |
| COc1ccc(Cc2c(N)nc3nc(N)nc(N)c3c2C)cc1.Cl [TCMDC-138061] | – | – | – | – | – | – | – | – | 17.1% | -37.2% | 0.0933% | -3.3% | 4.2% | -0.2% | 0.4% | – |
| Cc1nc(N)nc(N)c1CCCOc1ccccc1Br [TCMDC-138069] | 1.8% | 12.4% | -15.7% | -23.1% | 5.9% | 14.2% | 13.3% | -1.6% | – | – | – | – | – | – | – | HitlevelM [1, 6]: 0; Activity [1, 7]: 0; HitlevelF [2, 8]: 0 |
| Cc1nc(N)nc(N)c1-c1ccc(Br)c([N+](=O)[O-])c1 [TCMDC-138071] | -11.3% | 15.3% | 5.2% | -48.5% | 6.9% | 11.0% | 2.2% | 10.1% | – | – | – | – | – | – | – | HitlevelM [1, 6]: 0; Activity [1, 7]: 0; HitlevelF [2, 8]: 0 |
| Cl.Clc1ccc(CNCCCCCCCNCc2ccc(Cl)c(Cl)c2)cc1Cl [TCMDC-138075] | 58.0% | 51.9% | – | 51.1% | 16.8% | 19.3% | 11.6% | 13.1% | – | – | – | – | – | – | – | HitlevelM [1, 4]: 3; HitlevelF [2, 5]: 0 |
| CC(=O)c1ccc2nc[nH]c(=O)c2c1 [TCMDC-138172] | – | – | – | – | – | – | – | – | – | – | – | – | – | – | – | Average inhibition male (%) [1, 9]: 79.0%; % inhibition male (individual replicates) R1 [1, 9]: 88.9%; % inhibition male (individual replicates) R3 [1, 9]: 57.7%; % inhibition male (individual replicates) R4 [1, 9]: 96.3%; HitlevelM [1, 10]: 4; Average inhibition female (%) [2, 9]: 55.1%; % inhibition female (individual replicates) R1 [2, 9]: 62.7%; % inhibition female (individual replicates) R3 [2, 9]: 39.9%; % inhibition female (individual replicates) R4 [2, 9]: 66.0%; HitlevelF [2, 11]: 3 |
| COc1cc2nc(N3CCN(C(=O)c4c(Cl)nsc4-c4ccccc4Cl)CC3)nc(N)c2cc1OC.O=C(O)C(F)(F)F [TCMDC-138186] | 36.4% | 33.1% | -9.1% | 66.9% | 23.5% | 19.4% | 2.1% | 50.6% | – | – | – | – | – | – | – | HitlevelM [1, 4]: 2; HitlevelF [2, 5]: 1 |
